Tests used:
[1] = target: T1, EP1 receptor (Homo sapiens, UniProt P34995, A71T/L230H); experiment: [3H]PGE2 binding assay with membranes of pcDNA-EP1-transfected COS-M6 cells; design: expressed in transfected cells; host or cells: COS-M6 cells (membrane fraction); conditions: for IC50: 0.5 nM [3H]PGE2, FIG. 3B, read-out: IC50 for competition for [3H]PGE2 specific binding; for rank order of potency for competition for [3H]PGE2 specific binding: FIG. 3A, 0.03 nM-10 μM competitor
T1 sequence (P34995 1-402 A71T/L230H): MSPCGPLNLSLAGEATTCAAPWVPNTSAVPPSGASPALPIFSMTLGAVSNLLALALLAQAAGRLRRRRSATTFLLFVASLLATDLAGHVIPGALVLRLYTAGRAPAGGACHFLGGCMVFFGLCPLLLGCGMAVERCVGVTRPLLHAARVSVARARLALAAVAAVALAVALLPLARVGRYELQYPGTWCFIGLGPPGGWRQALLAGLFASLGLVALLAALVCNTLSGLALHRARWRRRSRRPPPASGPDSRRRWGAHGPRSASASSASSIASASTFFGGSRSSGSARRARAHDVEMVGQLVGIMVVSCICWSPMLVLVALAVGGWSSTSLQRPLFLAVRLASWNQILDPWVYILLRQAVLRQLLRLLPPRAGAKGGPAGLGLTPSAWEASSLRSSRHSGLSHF
Protocol: FIGS. 3A-3B—Competition for [^3H]PGE2 binding to pcDNA-EP1-transfected COS-M6 membranes: [^3H]PGE2 binding assays were performed as described in the Methods in the presence of Panel A: 0.03 nM-10 μM PGE2 (Δ), PGE1 (▪), PGF2α (□), PGD2 (●), Panel B: 3 nM-100 μM AH6809 (◯), SC19220 (Δ), and Butaprost (⋄). Butaprost and AH 6809 were generous gifts from Miles Inc. and Glaxo Group Research Ltd.
The pcDNA-EP1 plasmid was transfected into COS-M6 Cells using the DEAE-dextran method. The cells were maintained in culture for 72 h, then harvested and membranes prepared by differential centrifugation (1000×g or 10 min, then 100,000×g for 30 min) following lysis of the cells by nitrogen cavitation (Frey, et al., 1993). [3H]Prostaglandin E2 ([^3H]PGE2) binding assays were performed in 10 mM potassium phosphate (pH 6.0), containing 1 mM EDTA, 0.5 nM [^3H]PGE2 (154 Ci/mmol; DuPont-New England Nuclear) and 60-100 μg of protein from the 100,000×g membrane fraction. Incubations were conducted for 1 h at room temperature prior to separation of the bound and free radioligand by rapid filtration as previously described (Frey et al., 1993 Eur. J. Mol. Pharmacol., 244, pp 239-250). Residual [3H]PGE2 bound to the filter was quantitated by liquid scintillation counting. Specific binding was defined as the difference between total binding and non-specific binding, determined in the presence of 1 μM PGE2.

[2] = target: T1, EP1 receptor; experiment: Aequorin luminescence assay in pcDNA-EP1-injected Xenopus oocytes; type: cell-based; conditions: for agonist potency from dose-response of aequorin light emission: aequorin-loaded oocytes, FIG. 4E
Protocol: (§1) FIG. 4A-E—Expression of prostaglandin E2 receptor in Xenopus oocytes. Panel A: An inward Ca^2—dependent Cl^− current (shown as downward deflection) evoked by bath perfusion of 1 μM PGE2. The oocyte was injected with 5 ng of pcDNA-EP1 (Bam) and voltage-clamped at −60 mV. Panel B-D: PGE2-induced light responses in aequorin loaded oocytes. The intensity of aequorin light emission is expressed in relative units and the background emission typically was 0.5-0.7 units units. The PGE2 was injected into the recording cuvette at 10 s at a final concentration indicated on each trace Panel E; Light responses were evoked by different concentrations of PGE2 and PGF2α. Each bar represents the mean±s.e.m. of data from 10 to 15 oocytes from 4 donors. Data are expressed as the percentage of the response observed with 1 μM of PGE2.
Oocytes were taken from adult females of Xenopus laevis using standard surgical procedure (Colman, A., 1984 In: Transcription and Translation—A Practical Approach, IRL Press). To remove follicle cells, oocytes were treated for 2-3 h with freshly made collagenase (2 mg/ml, type 2, Worthington Biochemical Corp., Freehold, N.J.) in Ca^2+-free ND96 solution (ND96 in mM: NaCl 96, KCl 2, MgCl2 1, HEPES 5, Na-pyruvate 2.5, theophylline 0.5, gentamicin […], +1.8 CaCl2, pH 7.6). […] Functional activity was determined by measurement of either agonist-induced Ca^2+-dependent Cl^− current or light emission in oocytes injected with the Ca^2+-specific photoprotein aequorin (J. Blinks, Friday Harbor Photoproteins, Washington), (Giladi and Spindel 1991 Biotechniques, 10, pp 744-747). […] Ligand-containing solution was perfused and the current response was recorded. For the luminometric assay, aequorin-loaded oocytes (100 ng/ooctye) were placed individually in cuvettes containing 0.4 ml ND96 and the light emission provoked by ligand addition was recorded using a Bio-Orbit 1251 luminometer (Fisher Sci. Ltd.).
Functional activity was determined in pcDNA-EP1-injected oocytes using electrophysiological and aequorin luminescence assays. […]

[3] = target: T1, EP1 receptor; experiment: Electrophysiological assay (Ca2+-dependent Cl- current) in pcDNA-EP1-injected Xenopus oocytes; type: cell-based; conditions: bath perfusion of 1 μM PGE2, voltage clamped at -60 mV
Protocol: as §1
Oocytes were taken from adult females of Xenopus laevis using standard surgical procedure (Colman, A., 1984 In: Transcription and Translation—A Practical Approach, IRL Press). […] Functional activity was determined by measurement of either agonist-induced Ca^2+-dependent Cl^− current or light emission in oocytes injected with the Ca^2+-specific photoprotein aequorin (J. Blinks, Friday Harbor Photoproteins, Washington), (Giladi and Spindel 1991 Biotechniques, 10, pp 744-747). […] Ligand-containing solution was perfused and the current response was recorded. […]

[4] = target: T2, thromboxane receptor (Homo sapiens, UniProt P21731); experiment: Binding of SQ-29548 in human embryonic kidney 293 cells and membranes transfected with thromboxane-receptor cDNA
T2 construct: use of Vent polymerase (New England Biolabs) enabled amplification of the complete cDNA; expressed in transfected cells; host or cells: human embryonic kidney 293 cells and membranes
T2 sequence (P21731 1-343): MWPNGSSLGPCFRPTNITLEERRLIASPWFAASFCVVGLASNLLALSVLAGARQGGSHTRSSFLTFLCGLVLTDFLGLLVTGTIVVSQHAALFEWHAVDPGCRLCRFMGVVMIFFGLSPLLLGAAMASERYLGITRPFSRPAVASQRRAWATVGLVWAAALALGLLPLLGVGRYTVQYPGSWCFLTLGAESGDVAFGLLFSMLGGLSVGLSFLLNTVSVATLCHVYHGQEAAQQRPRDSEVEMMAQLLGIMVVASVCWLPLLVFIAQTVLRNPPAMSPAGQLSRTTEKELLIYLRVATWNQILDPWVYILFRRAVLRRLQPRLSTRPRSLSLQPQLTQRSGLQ
From the text: The thromboxane receptor has been expressed in Xenopus oocytes. It can couple with endogenous signal transduction components to elicit a calcium-activated Cl^− current recorded by electrophysiological measurement using the procedure described by Hirata, M. et al., (1991), Nature, 349, pp. 617. Binding studies have been performed with COS-1 cell membranes transfected by thromboxane receptor cDNA using the ligand S-145 (Hirata, M. et al., (1991), Nature, 349, pp. 617). […] This level of expression is at least 5-10 times higher than in platelet membranes. On a per-cell basis assuming a 10% transfection efficiency, we estimate ≈10^6 binding sites/tranfected cell as compared to ≈1300 sites present on a platelet (Hourani, S. M. O. et al., (1991), Pharmacol. Rev., 43, pp. 243).

CC(C)Oc1ccc2c(=O)c3cc(C(=O)O)ccc3oc2c1 [AH 6809]
IC50 [1]: ~0.5 µM

CCCCC[C@H](O)/C=C/[C@H]1C(=O)C[C@H](O)[C@@H]1C/C=C\CCCC(=O)O [PGD2]
rank order of potency for competition for [3H]PGE2 specific binding [1]: PGE2>PGE1>PGF2α>>PGD2

CCCCC[C@H](O)/C=C/[C@H]1[C@H](O)CC(=O)[C@@H]1CCCCCCC(=O)O [PGE1]
rank order of potency for competition for [3H]PGE2 specific binding [1]: PGE2>PGE1>PGF2α>>PGD2

CCCCC[C@H](O)/C=C/[C@H]1[C@H](O)CC(=O)[C@@H]1C/C=C\CCCC(=O)O [PGE2]
agonist potency from dose-response of aequorin light emission [2]: more potent agonist of the expressed receptor when compared to PGF2α | intracellular calcium in pcDNA-EP1 injected oocytes ([2]; oocytes challenged with PGE2): dose-dependent increase in intracellular calcium | rank order of potency for competition for [3H]PGE2 specific binding [1]: PGE2>PGE1>PGF2α>>PGD2 | Ca2+-dependent Cl- current response [3]: prominent current responses

CCCCC[C@H](O)/C=C/[C@@H]1[C@@H](C/C=C\CCCC(=O)O)[C@@H](O)C[C@H]1O [PGF2α]
agonist potency from dose-response of aequorin light emission [2]: PGE2 was more potent agonist of the expressed receptor when compared to PGF2α | rank order of potency for competition for [3H]PGE2 specific binding [1]: PGE2>PGE1>PGF2α>>PGD2

CC(=O)NNC(=O)N1Cc2ccccc2Oc2ccc(Cl)cc21 [SC 19220]
IC50 [1]: ~6.7 µM

O=C(O)CCC/C=C\C[C@@H]1[C@H](CNNC(=O)Nc2ccccc2)[C@H]2CC[C@@H]1O2 [SQ-29548]
binding affinity [4]: high affinity binding | maximal binding [4]: 2-3 pmol/mg protein

CCCCC[C@H](O)/C=C/[C@H]1[C@H](O)CC(=O)[C@@H]1C/C=C\CCCC(=O)O [[^3H]PGE2, [3H]Prostaglandin E2]
maximum number of specific binding sites (Bmax) ([1]; Scatchard analysis, pcDNA-EP1 transfected COS-M6 cell membranes): approximately 360 fmol/mg of protein | Kd ([1]; Scatchard analysis, pcDNA-EP1 transfected COS-M6 cell membranes, read-out: equilibrium dissociation constant (KD)): 0.001 µM

CCCC1([C@H](O)C/C=C/[C@H]2[C@H](O)CC(=O)[C@@H]2CCCCCCC(=O)OC)CCC1 [butaprost]
IC50 [1]: 50 µM | activity at the [3H]PGE2 specific binding sites ([1]; FIG. 3B): relatively inactive

From patent US6440680B1, “Methods of identifying modulators of prostaglandin receptor EP1” (Merck Frosst Canada, Inc., priority 1993, dated 2002)
